Results taken from ChEMBL document CHEMBL1154467, “QSAR study about ATP-sensitive potassium channel activation of cromakalim analogues using CP-MLR approach” (Eur J Med Chem, 2008).

Molecular target: ATP-binding cassette sub-family C member 9 (Rattus norvegicus) (UniProt Q63563)
Assay: […] of SUR2A/kir6.2 channel in Wistar rat thoracic aorta assessed as relaxation of Kcl-induced contraction
Assay type: tissue-based

ATP-binding cassette sub-family C member 9 (Rattus norvegicus), sequence (Q63563 whole entry): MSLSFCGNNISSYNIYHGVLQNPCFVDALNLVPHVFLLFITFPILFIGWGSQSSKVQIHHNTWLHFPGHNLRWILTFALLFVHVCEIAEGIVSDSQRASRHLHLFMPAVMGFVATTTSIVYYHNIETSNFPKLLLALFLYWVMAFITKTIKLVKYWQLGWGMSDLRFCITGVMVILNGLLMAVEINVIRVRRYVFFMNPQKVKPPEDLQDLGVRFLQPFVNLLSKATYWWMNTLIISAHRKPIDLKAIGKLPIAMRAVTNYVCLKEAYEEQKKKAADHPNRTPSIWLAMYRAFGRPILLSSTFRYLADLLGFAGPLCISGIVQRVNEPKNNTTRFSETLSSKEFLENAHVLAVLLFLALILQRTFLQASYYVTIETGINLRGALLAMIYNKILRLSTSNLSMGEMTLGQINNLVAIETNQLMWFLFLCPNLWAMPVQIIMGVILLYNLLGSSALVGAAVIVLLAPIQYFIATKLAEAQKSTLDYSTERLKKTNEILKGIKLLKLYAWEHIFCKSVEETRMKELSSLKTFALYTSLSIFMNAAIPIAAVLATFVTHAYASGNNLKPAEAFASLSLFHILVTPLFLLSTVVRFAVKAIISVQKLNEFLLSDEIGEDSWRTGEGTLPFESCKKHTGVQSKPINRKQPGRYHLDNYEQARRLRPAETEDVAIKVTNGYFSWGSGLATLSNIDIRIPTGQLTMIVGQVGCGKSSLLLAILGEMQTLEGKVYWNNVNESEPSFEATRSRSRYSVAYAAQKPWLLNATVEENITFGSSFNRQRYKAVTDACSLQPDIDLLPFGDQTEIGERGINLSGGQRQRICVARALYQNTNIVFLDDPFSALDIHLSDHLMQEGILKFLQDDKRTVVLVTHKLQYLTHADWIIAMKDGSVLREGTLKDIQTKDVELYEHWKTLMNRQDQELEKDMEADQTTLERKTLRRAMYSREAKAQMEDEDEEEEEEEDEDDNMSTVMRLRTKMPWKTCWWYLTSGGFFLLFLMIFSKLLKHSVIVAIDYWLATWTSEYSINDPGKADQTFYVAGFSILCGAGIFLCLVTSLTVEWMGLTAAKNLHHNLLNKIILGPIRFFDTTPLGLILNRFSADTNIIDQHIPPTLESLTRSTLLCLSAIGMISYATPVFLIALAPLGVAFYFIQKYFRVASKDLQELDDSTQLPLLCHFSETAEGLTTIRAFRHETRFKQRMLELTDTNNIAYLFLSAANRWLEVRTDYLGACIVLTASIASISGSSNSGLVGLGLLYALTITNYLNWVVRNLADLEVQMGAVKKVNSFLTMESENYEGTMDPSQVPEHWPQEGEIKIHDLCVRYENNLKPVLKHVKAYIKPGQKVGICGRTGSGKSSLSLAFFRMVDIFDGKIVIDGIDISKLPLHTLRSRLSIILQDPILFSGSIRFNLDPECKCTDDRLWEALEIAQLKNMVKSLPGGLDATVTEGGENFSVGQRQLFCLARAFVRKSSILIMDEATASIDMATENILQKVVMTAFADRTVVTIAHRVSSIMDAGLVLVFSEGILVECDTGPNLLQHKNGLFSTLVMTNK

Row | SMILES | pED50
1 | Cc1ccc(S(=O)(=O)NC(=O)NC2CC(C)(C)Oc3ccc(Cl)cc32)cc1 (configuration not stated) | 4.2
2 | CC1(C)CC(NC(=O)NCc2ccccc2)c2cc(Cl)ccc2O1 (configuration not stated) | 4.82
3 | CCNC(=S)NC1CC(C)(C)Oc2ccc(F)cc21 (configuration not stated) | 4.75
4 | CC(=O)NC1CC(C)(C)Oc2ccc(Cl)cc21 (configuration not stated) | 5.18
5 | CC1(C)CC(NC(=S)NCc2ccccc2)c2cc(Cl)ccc2O1 (configuration not stated) | 4.7
6 | CC1(C)CC(NC(=S)NCc2ccccc2)c2cc(F)ccc2O1 (configuration not stated) | 5.37
7 | CC1(C)CC(NC(=S)NCc2ccccc2)c2cc(Br)ccc2O1 (configuration not stated) | 4.61
8 | CCOC(=O)NC1CC(C)(C)Oc2ccc(F)cc21 (configuration not stated) | 4.14
9 | CCOC(=O)NC1CC(C)(C)Oc2ccc(Cl)cc21 (configuration not stated) | 4.42
10 | CC1(C)Oc2ccc(C#N)cc2C(N2CCCC2=O)C1O (racemic) | 6.89
11 | CC1(C)CC(NC(=O)NS(=O)(=O)c2ccc(Cl)cc2)c2cc(Cl)ccc2O1 (configuration not stated) | 4.29
12 | CC1(C)CC(NC(=O)NS(=O)(=O)c2ccccc2)c2cc(Cl)ccc2O1 (configuration not stated) | 3.68
13 | CCNC(=S)NC1CC(C)(C)Oc2ccc(Cl)cc21 (configuration not stated) | 5.09

Now from value to compound:

Row | pED50 | SMILES
14 | < 3.52 | CC1(C)CC(NC(=O)NCc2ccccc2)c2cc(Br)ccc2O1 (configuration not stated)
15 | 5.06 | CC(C)NC(=S)NC1CC(C)(C)Oc2ccc(Br)cc21 (configuration not stated)
16 | 4.59 | CCOC(=O)NC1CC(C)(C)Oc2ccc(Br)cc21 (configuration not stated)
17 | 3.96 | CC(C)NC(=O)NC1CC(C)(C)Oc2ccc(F)cc21 (configuration not stated)
18 | 3.84 | CC(C)NC(=O)NC1CC(C)(C)Oc2ccc(Cl)cc21 (configuration not stated)
19 | < 3.52 | CC(C)NC(=O)NC1CC(C)(C)Oc2ccc(Br)cc21 (configuration not stated)
20 | 5.17 | CCNC(=O)NC1CC(C)(C)Oc2ccc(Cl)cc21 (configuration not stated)
21 | 4.33 | CC(=O)NC1CC(C)(C)Oc2ccc(F)cc21 (configuration not stated)
22 | 5.43 | CCNC(=S)NC1CC(C)(C)Oc2ccc(Br)cc21 (configuration not stated)
23 | 4.73 | CC(C)NC(=S)NC1CC(C)(C)Oc2ccc(F)cc21 (configuration not stated)
24 | 4.37 | CCNC(=O)NC1CC(C)(C)Oc2ccc(F)cc21 (configuration not stated)
25 | 4.96 | CC(C)NC(=S)NC1CC(C)(C)Oc2ccc(Cl)cc21 (configuration not stated)
26 | 5.19 | CC(=O)NC1CC(C)(C)Oc2ccc(Br)cc21 (configuration not stated)
27 | 5.12 | CCNC(=O)NC1CC(C)(C)Oc2ccc(Br)cc21 (configuration not stated)
